The results in this text go back to patent EP4685152A1, “PEPTIDE BINDING TO LAG-3 AND USE THEREOF” (Kyungpook National University Industry-Academic Cooperation …, priority 2023, dated 2024).

Assay [1] deals with T1, LAG-3 (Homo sapiens, UniProt P18627).
T1 sequence (P18627 23-525): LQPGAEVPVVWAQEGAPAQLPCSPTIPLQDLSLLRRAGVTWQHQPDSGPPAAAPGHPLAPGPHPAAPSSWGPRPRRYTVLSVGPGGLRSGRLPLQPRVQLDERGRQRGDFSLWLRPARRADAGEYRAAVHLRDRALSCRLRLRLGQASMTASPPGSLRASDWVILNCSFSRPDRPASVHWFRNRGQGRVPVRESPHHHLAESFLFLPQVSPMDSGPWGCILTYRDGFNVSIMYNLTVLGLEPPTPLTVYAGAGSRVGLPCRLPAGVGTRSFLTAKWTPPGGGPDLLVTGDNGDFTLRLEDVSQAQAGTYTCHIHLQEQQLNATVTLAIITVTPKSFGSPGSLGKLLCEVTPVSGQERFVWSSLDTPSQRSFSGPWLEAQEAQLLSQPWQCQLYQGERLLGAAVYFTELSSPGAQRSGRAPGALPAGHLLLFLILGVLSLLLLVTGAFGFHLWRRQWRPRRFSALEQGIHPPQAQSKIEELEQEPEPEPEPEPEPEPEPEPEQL
As to the kind of experiment: Peptide binding to LAG-3-transfected cells by immunofluorescence microscopy. It is filed as cell-based. Also on record: GFP; host or cells: HEK-293T. As to conditions: red fluorescent (TAMRA) peptide 25 µM; LAG-3-transfected Hek-293T cells compared to non-transfected control cells. How it is done: Hek-293T cells (1.25×10^5) were seeded in 4-well chamber slides, transfected with human LAG-3 plasmid, and […]. Non-transfected cells were used as a control group. The next day, cells were washed twice with phosphate buffer and reacted with 1% BSA at room temperature for 1 hour to reduce nonspecific binding of peptides. Afterwards, cells were reacted with TAMRA-conjugated peptide at a concentration of 25 µM at 4°C for 1 hour. After fixation, cells were washed, counterstained with DAPI, treated with an anti-fade reagent to preserve fluorescence, and analyzed using a confocal microscope (Nanoscope System).
(§1) To determine the degree of binding of the peptide to LAG-3, a peptide labeled with a red fluorescent reagent was synthesized and treated in Hek-293T cells transfected with LAG-3 followed by observation under an immunofluorescence microscope. Non-transfected cells were used as a control group. Meanwhile, Jurkat T cells stimulated with PMA, ionomycin, and CQ to increase expression of LAG-3 were treated with the peptide, and binding was observed using a flow cytometer. Unstimulated Jurakt T cells were used as a control group.

The target of assay [2] is T1, LAG-3. As to the kind of experiment: Peptide binding to stimulated Jurkat T cells by flow cytometry. It is filed as cell-based. As to conditions: FITC-labeled peptide 10 µM; Jurkat T cells stimulated with PMA, ionomycin, CQ compared to unstimulated control cells. The protocol:
For flow cytometry, Jurkat T cells (1×10^6) stimulated with PMA (50 ng/ml), ionomycin (1 µg/ml), and CQ (100 µM) were harvested and suspended in culture medium containing 1% BSA for blocking at room temperature for 1 hour. Afterwards, the cells were further reacted with fluorescein isothiocyanate-labeled LAG-3 binding peptide (10 µM) at 4°C for 1 hour. After washing several times, 300 µl of cell suspension suspended in phosphate buffer was applied to Attune NxT flow cytometry (Thermo Fisher Scientific).
as §1

Assay [3] concerns the target T1, LAG-3. As to the kind of experiment: Competitive binding with LAG-3 blocking antibody, immunofluorescence microscopy on LAG-3-transfected cells. The class given is cell-based. Also on record: GFP; host or cells: HEK-293T. The following applies: LAG-3-transfected Hek-293T cells; LAG-3 blocking antibody 10 µg/ml first, then peptide 25 µM; compared to group without antibody. How it is done:
Hek-293T cells (1.25×10^5) were seeded in 4-well chamber slides and transfected with human LAG-3 plasmid, and the next day, the cells were washed twice with phosphate buffer and reacted with 1% BSA at room temperature for 1 hour to reduce nonspecific binding. Afterwards, cells were blocked with human LAG-3 blocking antibody (10 µg/ml) at 4°C for 30 minutes, and then reacted with TAMRA-conjugated peptide at a concentration of 25 µM at 4°C for 1 hour. After fixation, cells were washed, counterstained with DAPI, treated with an anti-fade reagent to preserve fluorescence, and analyzed using a confocal microscope (Nanoscope System).

Assay [4] addresses T1, LAG-3. Put plainly: Competitive binding with LAG-3 blocking antibody, flow cytometry on stimulated Jurkat T cells. The following applies: LAG-3 blocking antibody 10 µg/ml first, then peptide 10 µM, compared to untreated control group. It is filed as cell-based. The protocol:
Similarly, for flow cytometry, Jurkat T cells (1×10^6) stimulated with PMA (50 ng/ml), ionomycin (1 µg/ml), and CQ (100 µM) were harvested and suspended in culture medium containing 1% BSA for 1 hour at room temperature to block nonspecific binding. Afterwards, cells were blocked with human LAG-3 blocking antibody (10 µg/ml) at 4°C for 30 minutes and then reacted with fluorescein isothiocyanate-conjugated peptide at a concentration of 10 µM at 4°C for 1 hour. After washing several times, 300 µl of cell suspension suspended in phosphate buffer was applied to Attune NxT flow cytometry (Thermo Fisher Scientific).

A further assay concerns Jurkat T cells. As to the kind of experiment: T-cell activation assay (IL-2 ELISA). The class given is cell-based, human. As to conditions: stimulated Jurkat T cells under co-culture of HepG2 cells, HepG2 cell culture medium, or recombinant FGL-1 (10 µg/ml); peptide 50 µM, antibody 10 µg/ml; 24 hours. The protocol:
Jurkat T cells (1×10^6) were inoculated into a T25 flask and stimulated for 24 hours using PMA (50 ng/ml), ionomycin (1 µg/ml), and CQ (100 µM). HepG2 cells (5×10^3) were inoculated in a 96-well plate to induce secretion of FGL-1 for 48 hours. To co-culture the two types of cells, stimulated Jurkat T cells (2.5×10^4) were mixed with HepG2 at a ratio of 1:5. Similarly, for indirect co-culture, stimulated Jurkat T cells (2.5×10^4) were mixed with HepG2 cell culture medium. Finally, to observe the direct effect, stimulated Jurkat T cells (2.5×10^4) were treated with recombinant FGL-1 (10 µg/ml) protein. […] Afterwards, culture was carried out for an additional 24 hours for reaction. Control peptides were also used for comparison. After each culture time, the supernatant was harvested, and IL-2 secretion was measured using an ELISA kit for measuring human IL-2.
Investigation was made on whether the interaction between FGL-1 secreted from HepG2 hepatoma cells and LAG-3 of T cells inhibits T cell activity and, if so, whether it is blocked by a LAG-3 binding peptide. For this purpose, in the first experiment, Jurkat T cells were cultured with stimulation for 24 hours using PMA, ionomycin, and CQ. HepG2 cells were cultured in 96-well plates for 48 hours for FGL-1 secretion. […]
In general terms: ELISA stands for enzyme-linked immunosorbent assay.

Assay [5] addresses T2, cell lysate overexpressing LAG-3 (Homo sapiens, UniProt P18627).
T2 construct: GFP; host or cells: HEK-293T
T2 sequence (P18627 23-525): T1 sequence (P18627 23-525)
As to the kind of experiment: Pull-down with biotin-peptide and streptavidin beads, immunoblotting; cell lysate. It is filed as binding. As to conditions: cell lysate overexpressing LAG-3, biotin-labeled peptides; compared to the control group. How it is done: (§2) The binding specificity of the LAG-3 binding peptide was measured by pull-down analysis. After pull-down with LAG-3 binding peptide using human recombinant LAG-3 protein, it was applied to immunoblotting using LAG-3 antibody. In the same manner, cell lysates with LAG-3 overexpressed were […] using human LAG-3 plasmid DNA and then subjected to immunoblotting using LAG-3 antibodies.
(Immunoblotting shows a protein as a band on a membrane.)

In assay [6] the test system is MC38 mouse colon cancer cells. As to the kind of experiment: In-vivo antitumor therapy, syngeneic MC38 mouse tumor model. Also on record: species or system C57BL/6 mice. The following applies: compared to control group and phosphate buffer group; 10 mg/kg; peptide intravenously 6 times, antibody intraperitoneally 3 times. The protocol:
6-8-week-old C57BL/6 mice were purchased. Mice were bred and kept under the guidelines of the Institutional Animal Care and Use Committee (IACUC) of Kyungpook National University (2023-0184). Tumors were injected into the lower right flank of mice. For in-vivo antitumor treatment, mice were randomly selected and grouped when tumor size reached approximately 100-150 mm^3. Thereafter, the peptide was injected intravenously three times a week for two weeks at a dose of 10 mg/kg, and similarly the antibody was injected intraperitoneally three times at the same dose. Tumor size was measured using a digital caliper, and tumor volume was calculated using the formula (V = length × width^2 × 0.52) (where length (L) is the longest dimension, and width (W) is the shortest dimension, parallel to the mouse body). All mice were checked for ulcer severity after treatment, treatment was terminated when the tumor size reached approximately 3000 mm^3, and the mice were sacrificed.
To identify the anticancer effect in a syngeneic mouse tumor model, LAG-3 binding peptide was administered alone or in combination with PD-L1 antibody to mice in which tumors were induced using MC38 mouse colon cancer cells (FIG. 9a). […]

The target of assay [7] is T1, LAG-3. As to the kind of experiment: Phage binding ELISA on LAG-3-transfected or non-transfected cells. The class given is cell-based. More on the design: GFP; host or cells: HEK-293T. The following applies: phage clone 3 among 13 selected phage clones; transfected or non-transfected Hek-293T cells; OD 450 nm. The protocol:
Hek-293T cells (2.5×10^4) were seeded in a 96-well plate and transfected with LAG-3 plasmid. Culture was performed for 48 hours. Non-transfected Hek-293T cells were used as a control group. Plates were blocked with 10 mg/ml BSA for 1 hour at room temperature. After washing the wells six times with Tris-buffered saline-Tween 20 (0.1%), 100 µl of phage clones (1×10^9 pfu/well) were added and reacted at 4°C for 1 hour. After washing, horse-radish peroxidase (HRP)-conjugated T7 tail fiber antibody (diluted 1:10,000 in blocking buffer) was added and reacted at room temperature for 1 hour. After washing the plate six more times, a substrate consisting of 3,3',5,5'-tetramethylbenzidine was added and reacted at room temperature for 10-15 minutes. The reaction was finally stopped by adding 100 µl of 2 M H2SO4 (stop solution), and the plates were analyzed at 450 nm with a microplate reader.

Assay [8] concerns the target T3, recombinant LAG-3 protein (Homo sapiens, UniProt P18627).
T3 construct: purchased Acro Biosystems
T3 sequence (P18627 23-450 limits assumed): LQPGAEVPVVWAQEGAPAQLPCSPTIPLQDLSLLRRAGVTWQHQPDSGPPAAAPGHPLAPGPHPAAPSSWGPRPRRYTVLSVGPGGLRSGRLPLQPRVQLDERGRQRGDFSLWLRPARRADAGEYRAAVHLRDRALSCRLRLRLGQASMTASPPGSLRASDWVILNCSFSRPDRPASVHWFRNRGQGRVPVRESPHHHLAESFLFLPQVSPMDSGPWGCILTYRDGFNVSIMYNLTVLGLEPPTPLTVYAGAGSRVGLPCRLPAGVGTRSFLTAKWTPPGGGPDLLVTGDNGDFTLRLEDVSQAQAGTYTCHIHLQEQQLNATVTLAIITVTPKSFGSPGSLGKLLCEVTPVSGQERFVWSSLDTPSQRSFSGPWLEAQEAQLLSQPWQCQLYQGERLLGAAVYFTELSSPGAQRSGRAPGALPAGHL
As to the kind of experiment: Pull-down with biotin-peptide and streptavidin beads, immunoblotting; recombinant protein. It is filed as binding. As to conditions: biotin-labeled peptides, compared to the control group. How it is done:
as §2

Molecules are shown by their SMILES.

Turning to `CC[C@H](C)[C@@H]1NC(=O)[C@@H](N)CSSC[C@@H](C(=O)O)NC(=O)[C@H](C(C)C)NC(=O)[C@H](C)NC(=O)[C@@H]2CCCN2C(=O)[C@H](CC(=O)O)NC(=O)[C@H](CC(N)=O)NC(=O)[C@H](CCCNC(=N)N)NC1=O` [LAG3Pep-1], the “binding of peptide to LAG-3 expressing cells” value on LAG-3 [1] is “bind more strongly”. Further, the “binding of peptide to stimulated Jurkat T cells” value at LAG-3 [2] is “more LAG-3Pep-1 and LAG-3Pep-2 peptides were bound”. Besides, the “binding strength of peptide after LAG-3 blocking antibody” value at LAG-3 [3] was “reduced”. Further, at LAG-3 [4], the “binding of peptide after LAG-3 blocking antibody” value was “reduced”.

As for `CC(C)C[C@H](NC(=O)[C@@H](NC(=O)[C@H](CO)NC(=O)[C@@H](N)CS)C(C)C)C(=O)N[C@@H](CC(N)=O)C(=O)N[C@@H](C)C(=O)N[C@@H](CO)C(=O)NCC(=O)N[C@@H](CS)C(=O)O` [LAG3Pep-2], the IL-2 secretion entry in the assay with Jurkat T cells is “significantly increased”. The “detection of LAG-3 proteins after pull-down” value in assay [5] is “more LAG-3 proteins were detected”. Besides, in assay [6], the “cancer growth, single administration” value is “partially inhibited”. At LAG-3 [1], the “binding of peptide to LAG-3 expressing cells” value is listed as “bind more strongly”. The “cell binding by phage binding ELISA” value at LAG-3 [7] is on record as “highest level of binding”. Moreover, the “binding of peptide to stimulated Jurkat T cells” value on LAG-3 [2] is “more LAG-3Pep-1 and LAG-3Pep-2 peptides were bound”. Further, the “binding strength of peptide after LAG-3 blocking antibody” value at LAG-3 [3] is “reduced”. For the same compound, the “detection of LAG-3 protein after pull-down” value in assay [8] is on record as “more detection of LAG-3 protein”. Further, the “binding of peptide after LAG-3 blocking antibody” value at LAG-3 [4] is recorded as “reduced”.
